Results on one compound are retold here after patent US12115176B2, “Methods and compositions relating to ClbP inhibition” (PRESIDENT AND FELLOWS OF HARVARD COLLEGE, priority 2021, dated 2024).

The target of test [1] is E. coli BL21 overexpressing ClbP (Escherichia coli, UniProt Q0P7K6). The test is described as follows: ClbP fluorescence activity assay (live cells). It is filed as cell-based. As to the method:
ClbP fluorescence activity assay (live cells). One 5 mL starter culture each E. coli BL21 pET-29b-ClbP and pET-29b-ClbP-S95A were inoculated from frozen stocks and grown overnight at 37° C. in LB medium supplemented with 50 μg/ml kanamycin (LB+kan). Overnight cultures were diluted 1:100 in fresh LB+kan and incubated at 37° C. to an OD600 of 0.3, at which point protein expression was induced by the addition of 500 μM isopropyl β-D-1-thiogalactopyranoside (IPTG) and cultures were moved to 15° C. for 4 hours. Cultures were then aliquoted in a black 384-well plate and the appropriate concentration of inhibitor was added as a DMSO stocks to a final concentration of 1% DMSO in a volume of 30 μL. Reactions were initiated by the addition of 10 μL of LB+kan+IPTG containing the fluorogenic substrate (final concentration=100 μM). Plastes were incubated at 25° C. with intermittent shaking while taking regular fluorescence measurements in a Bio-Tek Synergy HTX multimode plate reader with an excitation filter of 360/40 nm and an emission filter of 440/20 nm. “% activity” was determined based on the formula above using RFU measurements after 7 hours.

The next test deals with Escherichia coli NC101. In words: Bacterial MIC assay (broth dilution). The test is classed as cell-based. The settings on record: Escherichia coli, NC101, 15 h, read-out: MICs by compound. As to the method:
MICs of compounds against different bacterial species were determined using a modified version of a broth microdilution protocol which has been previously reported.^1 Briefly, cultures of each species indicated were inoculated from frozen stocks in deoxygenated Wilkins-Chalgren Anaerobic Medium (WCAM) inside of an anerobic chamber with an 92.5% N2/5% CO2/2.5% H2 atmosphere. Cultures were grown for 24-48 hours in a 37° C. incubator at which point an OD600-measurement was taken for each culture and was accordingly diluted in fresh WCAM to an equivalent of OD600=0.01. Diluted cultures were then distributed into the wells of a clear, flat-bottom 384-well plate and the compound of interest was added to a final DMSO concentration of 2% (or DMSO only for positive controls). […] mineral oil (Millipore Sigma) was deposited on top of the cultures and plates were covered with a clear adhesive plate seal. Plates were incubated at 37° C. for 16 hours, at which point the OD600 of all wells was recorded on a SpectraMax M2 plate reader (Molecular Devices).
Background: In broth dilution the organism is exposed to a series of concentrations in liquid medium.

Another test has as its system Klebsiella oxytoca. The test is described as follows: Bacterial MIC assay (broth dilution). It is filed as cell-based. The settings on record: 15 h, read-out: MICs by compound.
The subject of the next test is Lactobacillus rhamnosus. In words: Bacterial MIC assay (broth dilution). It is filed as cell-based. The note with it: Lacticaseibacillus rhamnosus, 15 h, read-out: MICs by compound.
The subject of another test is Enterococcus faecalis. The test is described as follows: Bacterial MIC assay (broth dilution). The test is classed as cell-based. The settings on record: 15 h, read-out: MICs by compound.
The subject of the next test is Bifidobacterium longum. In words: Bacterial MIC assay (broth dilution). The test is classed as cell-based. The settings on record: 15 h, read-out: MICs by compound.
Test [2] has as its system serine hydrolases in E. coli cell lysates. In words: Gel-based ABPP with fluorophosphonate probe (FP). It is filed as binding. The settings on record: inhibitor up to 100 μM. From the text:
(§1) To further explore other possible targets of inhibitors 1-4, an activity-based protein profiling (ABPP) approach was used to assay their activity against a wide variety of serine hydrolases in bacterial and mammalian proteomes. […] One limitation of this assay is that ClbP is not labeled by the FP probe, so it cannot be observed as a reference for binding. Any other proteins which evade labeling by FP would also not be detected in this assay.
(§2) Activity-Based Protein Profiling. Bacterial or mammalian cell lysates were normalized to 1 mg/mL protein concentrations in PBS using the DC protein assay (Bio-Rad). 50 μL aliquots of lysates were incubated with compounds at the indicated concentrations (1 μL of a 50X stock in DMSO) for 30 minutes at room temperature and subsequently labeled with 5 μM of fluorophosphonate-PEG(4)-biotin probe (1 μL of a 50X stock in DMSO, synthesized as previously reported)^56 for 1 hour at room temperature. The reactions were mixed with 50 μL of 2X SDS protein loading buffer, boiled for 10 minutes at 95° C., and separated by SDS-PAGE. The labeled proteins were detected by IRdye-conjugated streptavidin (Li-Cor) and visualized using the GellOdyssey™ Imaging System (Li-Cor).^56

In test [3] the test system is serine hydrolases in HEK293T cell lysates. In words: Gel-based ABPP with fluorophosphonate probe (FP). The test is classed as binding, human. The note with it: inhibitor up to 100 μM.
Text: as §1, §2

The subject of test [4] is Penicillin Binding Proteins (PBPs). In words: Gel-based ABPP with BOCILLIN-FL probe. From the text:
To further explore the specificity of our inhibitors, another ABPP assay was used in which the broad-spectrum FP probe was replaced with a specific probe, BOCILLIN-FL, which targets penicillin binding proteins (PBPs) using a β-lactam warhead. This probe was chosen because of ClbP's homology to AmpC β-lactamases. Since PBPs are targeted by β-lactams, it was reasoned that the similarity of their binding pockets would mean a greater chance of identifying a secondary target among this family of enzymes.

Test [5] concerns E. coli NC101 with mouse fecal community. The test is described as follows: ClbP inhibition in a microbial community. It is filed as cell-based. The note with it: E. coli NC101 plus C57BL/6J mouse fecal community, anaerobic, 1 μM 3, LC-MS. On the procedure:
ClbP inhibition in a microbial community. Mouse pellets were aseptically collected from cages and immediately stored at −80° C. until use. One 5 mL starter culture each of E. coli NC101 and E. coli NC101ΔclbP was started from frozen stocks in deoxygenated Brain-Heart Infusion media (BHI) inside an anaerobic chamber under a 95% N215% H2 atmosphere and incubated at 37° C. overnight. Mouse fecal pellets were defrosted in the anaerobic chamber and resuspended in BHI with 10 mL media/100 mg pellet mass. The fecal slurry was then centrifuged at 1000×g for 5 minutes to separate solids and the resulting supernatant was used as the media for all “+ community” conditions. Cultures were incubated in 500 μL volumes in triplicate in a deep-well plate under anaerobic conditions, with a 1:100 inoculum of the appropriate E. coli overnight for the “+E. coli” conditions. All samples contained a final concentration of 1% DMSO, with or without 1 μM inhibitor 3. After 20 hours at 37° C., samples were processed, and the concentration of N-myristoyl-D-asparagine quantified via LC-MS/MS as described above.

Structures are written as SMILES. “Also recorded” adds a separate entry of the source.

Take `CC1(C)OB([C@@H](CC(N)=O)NC(=O)CCCc2ccccc2)OC1(C)C` [Compound 3]: in [1], the IC50 was determined as 0.0183 µM. For the same compound, the MIC in the test with Escherichia coli NC101, in the test on Klebsiella oxytoca, with Lactobacillus rhamnosus, with Enterococcus faecalis and in the test on Bifidobacterium longum was > 200 µM each time. For the same compound, the “change in protein labeling by FP probe” value in test [2] and in test [3] was “does not identify any significant targets” throughout. The “competitive binding to BOCILLIN-FL labeled PBPs” value in test [4] (B. cereus ATCC14579 lysate) and in test [4] (E. coli NC101 lysate) was “none of these PBPs showed any binding; also recorded: no competitive binding” each time. The “production of prodrug scaffold in a complex microbial community” value in test [5] was “reduce the release of N-myristoyl-Asn; also recorded: fully suppressed production of the prodrug scaffold; also recorded: can selectively block colibactin biosynthesis; also recorded: can still effectively block colibactin production”.

By IC50 is commonly meant the concentration that gives 50% inhibition.
